SMILES strings stand for the structures.

One data set in a line: pKa of representative cationic lipids. It counts as physicochemical. The settings on record: Table 2, lipids of Formula (II).
As for `CCCCCCCCC(=O)N(CCCN(C)C)C(CCCCCCCCCOC(=O)C(CCCC)CCCCCC)CCCCCCCCCOC(=O)C(CCCC)CCCCCC` (stereo not shown) [II-17], the pKa (in general, the negative logarithm of the acid dissociation constant) was 6.27.

In the case of `CCCCC(CCCC)OC(=O)CCCCCCCCC(CCCCCCCCC(=O)OC(CCCC)CCCC)N(CCCN(C)C)C(=O)CCCCCCCC(=O)OC(CCCC)CCCC` [II-24], the pKa amounted to 6.14.

Staying with this data set, now noted: first Table 12, representative lipid compounds XIII.
In the case of `CCCCCCCCCCN(C(=O)CCCCN(C)C)C(CCCCCCCCC(=O)OCC(CCCC)CCCCCC)CCCCCCCCC(=O)OCC(CCCC)CCCCCC` (stereo not shown) [XIII-7], the pKa turned out to be 6.74.

Take `CCCCCCCCCCN(C(=O)CCCCN(CC)CC)C(CCCCCCCCC(=O)OCC(CCCC)CCCCCC)CCCCCCCCC(=O)OCC(CCCC)CCCCCC` (stereo not shown) [XIII-8]: the pKa amounted to 6.68.

In turn, `CCCCCCCCCCN(C(=O)CCCCN1CCCC1)C(CCCCCCCCC(=O)OCC(CCCC)CCCCCC)CCCCCCCCC(=O)OCC(CCCC)CCCCCC` (stereo not shown) [XIII-9] returned a pKa of 6.83.

Regarding `CCCCCCCCCCN(C(=O)CCCN(C)C)C(CCCCCC(=O)OCC(CCCCCC)CCCCCCCC)CCCCCC(=O)OCC(CCCCCC)CCCCCCCC` (stereo not shown) [XIII-16], the pKa came to 6.77.

Take `CCCCCCCCCCN(C(=O)CCCN(C)C)C(CCCCCCCCC(=O)OCC(CCCC)CCCCCC)CCCCCCCCC(=O)OCC(CCCC)CCCCCC` (stereo not shown) [XIII-18]: the pKa was 6.47.

For the molecule `CCCCCCC(CCCC)COC(=O)CCCCCCCCC(CCCCCCCCC(=O)OCC(CCCC)CCCCCC)N(CC(CC)CCCC)C(=O)CCCN(C)C` (stereo not shown) [XIII-20], the pKa was 6.84.

In the case of `CCCCCCCCCN(C(=O)CCN(C)C)C(CCCCCCCCC(=O)OCC(CCCC)CCCCCC)CCCCCCCCC(=O)OCC(CCCC)CCCCCC` (stereo not shown) [XIII-25], the pKa is 6.2.

`CCCCCCCCCCN(C(=O)CCCN1CCCC1)C(CCCCCC(=O)OCC(CCCCCC)CCCCCCCC)CCCCCC(=O)OCC(CCCCCC)CCCCCCCC` (stereo not shown) [XIII-29]: the pKa was 6.81.

For the molecule `CCCCCCCCCCN(C(=O)CCCCN(CCCC)CCCC)C(CCCCCCCCC(=O)OCC(CCCC)CCCCCC)CCCCCCCCC(=O)OCC(CCCC)CCCCCC` (stereo not shown) [XIII-31], the pKa was 5.05.

For the molecule `CCCCCCCCCN(C(=O)CCCN(C)C)C(CCCCCCCCCOC(=O)C(CCCC)CCCCCC)CCCCCCCCCOC(=O)C(CCCC)CCCCCC` (stereo not shown) [XIII-32], the pKa worked out at 6.41.

The molecule `CCCCCCCCCCN(C(=O)CCN1CCCC1)C(CCCCCCCCC(=O)OCC(CCCC)CCCCCC)CCCCCCCCC(=O)OCC(CCCC)CCCCCC` (stereo not shown) [XIII-33] registered a pKa of 6.19.

The values are drawn from patent US20230097090A1, “IMPROVED LIPID NANOPARTICLES FOR DELIVERY OF NUCLEIC ACIDS” (ACUITAS THERAPEUTICS, INC., priority 2019, published 2023).
